Reference: US12173317B2, “Use of histone modifiers to reprogram effector T cells” (Board of Regents, The University of Texas System, priority 2018, dated 2024)
Entries after “also recorded” stand apart in the source; their conditions may differ.

Experiments:
[1] = system: tumor infiltrating lymphocytes (TILs)
Description: The effect of IL-21 and Panobinostat in the clinical-relevant TIL expansion was assessed.
To examine the possible de-differentiating effect of an HDAC inhibitor/IL-21 combination, TILs were untreated or pretreated with SAHA for 24 hours, then subjected to regular REP (irradiated PBMC and LCL cells, anti-CD3 and IL-2), or REP with SAHA/IL-21.
The TILs were cultured from patient melanoma tumors. […] For studies with SAHA, SAHA was used at 1-5 μM.
TILs were cultured in 50% AIM-V, 50% TIL complete medium which contains RPMI1640, 10% human AB serum, 10 mM HEPES, and 2-Mercaptoethanol. […] IL-21 (30 ng/ml) or HDACi SAHA (1-5 μM) or Panobinostat (1-3 nM) was added on day 0, 4 and 7 if included in the expansion. After 14 days, expanded cells were subjected to further analyses.

[2] = system: histone H3 acetylation (AcH3); assay: Western blot of H3 acetylation (AcH3) level; assay type: cell-based, human
Description: (§1) Western Blot analysis: Equal number of cells was lysed in 2×SDS loading buffer and loaded for immunoblot analysis with different antibodies (Cell Signaling). Anti-β-actin-HRP was from Santa Cruz Biotech. β-actin was used as the loading control for all immunoblot experiments. The results were quantified using ImageJ and normalized to the density of actin in the corresponding samples.

[3] = system: MART1 (M27)-specific effector CD8+ T cells; assay: CD28 level on M27-specific effector CD8+ T cells by flow cytometry; assay type: cell-based, human; details: activation with M27-pulsed mature dendritic cells, 4 days
Description: The present studies were performed to develop a method to reprogram or de-differentiate effector T cells that express CD45RO to central memory T cells that express CD62L and CD28 (FIG. 8). The effect of IL-21 and histone deacetylase inhibitor (HDACi) treatment on central memory markers CD28 and CD62L was evaluated. MART1 (M27)-specific effector CD8^+ T cells were untreated or pretreated with SAHA for 24 hours, followed by activation with M27-pulsed mature dendritic cells in the presence or absence of SAHA/IL-21 for 4 days.
(§2) Flow Cytometry: Cells were stained with antibodies against CD8, CD28, CD62L or CD132. All FACS data were acquired via an LSR II flow cytometer and analyzed via FlowJo software (Tree Star, Inc.).
To assess the effect of SAHA/IL-21 on CD28 expression in the context of a more physiologic, antigen-specific (in contrast to non-specific polyclonal) stimulation, this effect was evaluated on MART1 (M27)-specific effector/effector memory cells generated using peptide-pulsed autologous dendritic cells. MART1 (M27)-specific effector CD8^+ T cells (CD45RO^+, CD28-neg, CD62L-neg) were generated following iterative cycles of in vitro stimulation, tetramer-guided sorting of M27-specific CTL and expansion to uniformity (>95% MART-1-specific effector CTL). First, the effect of SAHA was evaluated on pSTAT3 binding to the CD28 promoter region. […]

CD28 promoter = assay: Chromatin immunoprecipitation (ChIP) on the CD28 promoter; assay type: cell-based, human
Description: Chromatin immunoprecipitation (ChIP): ChIP was performed using a ChIP Assay Kit according to the manufacturer's instructions (Millipore). Quantitative real-time PCR was performed with primers: CD28 promoter proximal STAT sites: forward […] (SEQ ID NO:10), reverse […] (SEQ ID NO: 11); distal STAT sites: forward […] (SEQ ID NO: 12), reverse […] (SEQ ID NO: 13); Rabbit IgG was used as a negative control.

human CD8+ T cells = assay: CD28 expression in polyclonally activated human CD8+ T cells; assay type: cell-based
Description: (§3) IL-21 upregulates CD28 expression on activated human naïve CD8^+ T cells: CD28 is a pivotal costimulatory molecule for naïve T cell activation and memory T cell function. […] To investigate the molecular mechanisms of IL-21-induced CD28 expression, melanoma antigen recognized by T cells (MART1, M27)-specific CTLs were generated in the absence or presence of IL-21 as previously described (Li et al., 2005). […] To further corroborate the findings, sort-purified naïve human CD8^+ T cells (CD45RA^+CCR7^+) from healthy donors were activated with anti-CD3/CD28 beads in the absence or presence of IL-21 and surface CD28 expression was detected by flow cytometry.
(§4) Polyclonal stimulation of CD8^+ T cells: Naïve CD8^+ T cells (CD8^+CD45RA^+CCR7^+) were flow cytometry-sorted or were isolated using EasySep™ Human Naïve CD8^+ T Cell Enrichment Kit (StemCell). In some experiments, total CD8^+ T cells were negatively selected using EasySep™ Human CD8^+ T Cell Enrichment Kit (StemCell). The purity of the naïve or total CD8^+ T cells was greater than 95% as determined by flow cytometry. CD8^+ T cells were cultured in RPMI 1640 with 10% fetal bovine serum and penicillin/streptomycin. CD8^+ T cells were activated using Dynabeads® Human T-Activator CD3/CD28 for T-Cell Expansion and Activation (Life Technologies) at a bead:cell ratio of 1:1 or together with 30 ng/mL human IL-21 (Peprotech). At the indicated time points, T cells were harvested and beads were removed using a magnet before downstream analysis.
as §2
Quantitative real-dime PCR: Total RNA was prepared using Qiagen RNA purification kit. cDNA. was made using Superscript reverse transcriptase and oligo(dT) primers (Life Technology), and gene expression was detected with a Bio-Rad iCycler Optical System using iQ SYBR green real-time PCR kit (Bio-Rad Laboratories, Inc.). The data were normalized to the reference gene RPL13A. RPL13A primer was purchased from Qiagen. Other primer pairs used were: CD28 forward: […] (SEQ ID NO:2), reverse: […] (SEQ ID NO: 3); CD62L forward: […] (SEQ ID NO: 4), reverse: […] (SEQ ID NO: 5); Additional primers included lymphoid enhancer-binding factor 1 (LEFI) forward: […] (SEQ ID NO: 6), reverse: […] (SEQ ID NO: 7); transcription factor 1 (TCF1) forward: […] (SEQ ID NO: 8), reverse: CCTCGACCGCCTCTTCTTC (SEQ ID NO: 9).
Human shRNA Knockdown: Total CD8^+ T cells were isolated and transfected with 5 μg negative control, STAT1 shRNA, or STAT3 shRNA (Dharmacon) using Amaxa human T cell Nucleofector Kit according to the manufacturer's instructions (Lonza). Transfected cells were rested for 1-2 days and live GFP^+ cells were sort-purified for immunoblot analysis or were stimulated for 7 days as previously described before further analysis.

STAT5 = assay: Western blot of pSTAT5; assay type: cell-based, human; details: naïve CD8+ T cells, anti-CD3/CD28 beads, 30 minutes after activation
Description: as §4, §1

target tumor cells = assay: Chromium release assay (CRA); assay type: cell-based; details: effector:tumor 20:1, 4 hours, compared with regular expansion
Description: (§5) Chromium Release Assay (CRA): Tumor cells were labeled with Cr51 before being incubated with antigen-specific CTLs at effector:tumor of 20:1 for 4 hours. The Cr51 amount in the supernatants was measured and the killing efficiency was calculated as % killing=100%×(sample average−average of negative control)/(average of positive control average of negative control).
as §5, with “control−average” for “control average”

[4] = system: tumor antigen-specific CTL cells; assay: Intracellular staining of IFN-γ and granzyme B; assay type: cell-based, human; details: restimulated with tumor cells
Description: Intracellular Staining: The cells were restimulated with tumor cells for 16 hours and stained with antibody against CD8, followed by fixation and staining with antibodies against IFN-γ and granzyme B in permeabilization buffer. The cells were washed and resuspended in FACS buffer before analysis.

STAT1 = assay: Western blot of pSTAT1; assay type: cell-based, human; details: naïve CD8+ T cells, anti-CD3/CD28 beads, 30 minutes after activation
Description: as §4, §1

STAT3 = assay: Western blot of IL-21-induced pSTAT3; assay type: cell-based, human
Description: as §4, §1

CD132 (γC) = assay: CD132 surface level on expanded CTLs by flow cytometry; assay type: cell-based, human; details: CD8+ gate
Description: (§6) The expanded TILs/CTLs were also stained with antibodies against CD8 and CD132 and analyzed using the CD8^+ gate. […] In addition, the expanded CTLs were labeled with carboxyfluorescein succinimidyl ester (CFSE) and cultured with IL-2 or IL-15 for 2 days to check cell division. […] (FIG. 4B).
as §2

expanded CTLs = assay: CFSE proliferation of expanded CTLs with IL-2 or IL-15; assay type: cell-based, human; details: 2 days
Description: as §6
Central memory function associated with the IL-21/Pano-induced CD28^+CD62L^+ population was evaluated by the ability of these central memory-like T cells to undergo homeostatic proliferation in response to IL-7 and IL-15. ETC cells expanded with four different protocols (regular, adding IL-21 alone, adding Pano alone, or IL-21+Pano) were labeled with CFSE and cultured with IL-2, IL-7 or IL-15 for 2 days. […] Adding Panobinostat alone to REP increased cell proliferation in response to IL-15 but not to IL-2. […] Since IL-2 and IL-15 share CD132 (γC) and CD122 receptor subunits, CD132 and CD122 levels were assessed on the surface of these cells.

[5] = system: tumor antigen-specific CTL lines; assay: REP and mini-REP expansion fold of CTLs; assay type: cell-based, human; details: 2 weeks
Description: The TILs were cultured from patient melanoma tumors. […] After 14 days, cells were used for further analyses. For studies with SAHA (FIG. 2), SAHA was used at […].
Mini-REP was started scaling down from T25 flasks to 24-well plates accordingly. IL-21 and Panobinostat dose remained unchanged.
To examine the clinical applicability of Panobinostat (Pano) in the setting of antigen-specific ACT, MART1 (M27)-specific effector/effector memory cells generated via the ETC approach were used and expanded in vitro by REP, as previously described (Yee, 2014). Cells were expanded with four different protocols (regular, adding IL-21 alone, adding Pano alone, or IL-21+Pano). […] It was posited that Panobinostat, like SAHA, enabled STAT3 and other transcription factors/cofactors to access binding sites and induce CD28 and CD62L expression.
The TILs were cultured from patient melanoma tumors. […] After 14 days, cells were used for further analyses.

M27-specific CTLs = assay: CD28 expression in M27-specific CTLs generated with IL-21; assay type: cell-based, human
Description: as §3, §2
Quantitative real-dime PCR: Total RNA was prepared using Qiagen RNA purification kit. cDNA. was made using Superscript reverse transcriptase and oligo(dT) primers (Life Technology), and gene expression was detected with a Bio-Rad iCycler Optical System using iQ SYBR green real-time PCR kit (Bio-Rad Laboratories, Inc.). The data were normalized to the reference gene RPL13A. RPL13A primer was purchased from Qiagen. Other primer pairs used were: CD28 forward: […] (SEQ ID NO:2), reverse: […] (SEQ ID NO: 3); CD62L forward: […] […]

Molecule: Cc1[nH]c2ccccc2c1CCNCc1ccc(/C=C/C(=O)NO)cc1 [Panobinostat]
- cytotoxicity ([1]; screen of HDACi): minimal cytotoxicity
- Panobinostat dose that increased AcH3 level [2]: ≥ 0.5 nM

Molecule: O=C(CCCCCCC(=O)Nc1ccccc1)NO [SAHA, Suberoylanilide Hydroxamic Acid]
- CD28 expression [3]: upregulated
- AcH3 level on the CD28 promoter (CD28 promoter; M27-specific effector CD8+ T cells, SAHA 24 hours): significantly increased
- IL-21-induced STAT3 (pSTAT3) binding to the CD28 promoter (CD28 promoter; SAHA 24 hours, then IL-21 30 minutes): allowing IL-21-induced STAT3 to bind to the same DNA region; also recorded: increased; also recorded: allows IL-21-induced pSTAT3 to access the CD28 promoter
- cell death in REP culture [1]: caused dramatic cell death
- viable cells at the end of REP [1]: few viable cells
- AcH3 level by western blot ([2]; H3 and β-actin as loading controls): dose-dependent increase; also recorded: increases H3 acetylation in a dose-dependent manner
- SAHA concentration that augmented AcH3 level ([2]; effector CD8+ T cells): ≥ 1 µM
- SAHA concentration that could augment AcH3 levels ([2]; titration study, effector CD8+ T cells): ≥ 1 µM

Molecule: IL-21: Human Interleukin 21, protein cytokine of 162 amino acids (SEQ ID NO:1)
- IL-21-mediated enhancement of CD28 expression (human CD8+ T cells; CD8+ T cells from Job's syndrome patients): completely abrogated
- IL-21-induced CD28 protein and mRNA upregulation diminished (human CD8+ T cells; STAT1 shRNA-transfected CD8+ T cells): not
- IL-21-induced CD28 protein and mRNA upregulation (human CD8+ T cells; STAT3 shRNA-transfected CD8+ T cells): diminished
- CD28 expression (human CD8+ T cells; activated TEMRA CD8+ T cells): minimally upregulated
- CD28 mRNA level (human CD8+ T cells; naïve CD8+ T cells, anti-CD3/CD28): greatly augmented
- CD28 surface level expression (human CD8+ T cells; naïve CD8+ T cells, anti-CD3/CD28 beads): significantly increased; also recorded: upregulates
- expression of CD28 at protein and mRNA levels (human CD8+ T cells; total CD8+ T cells from healthy donors): increased
- STAT5 phosphorylation (STAT5): weak
- CD28 expression [3]: slightly increased; also recorded: not observed
- tumor cell killing (target tumor cells): enhanced
- enrichment of STAT3 at proximal and distal CD28 promoter regions (CD28 promoter; anti-CD3/CD28 and IL-21 relative to anti-CD3/CD28 alone): 2-3 fold
- IFNγ and granzyme B expression [4]: augmented
- STAT1 phosphorylation (STAT1): strong
- IL-21-induced STAT3 phosphorylation levels, naïve compared with effector CD8+ T-cells (STAT3): comparable
- STAT3 phosphorylation (STAT3; effector CD8+ T cells): induced STAT3 phosphorylation
- STAT3 phosphorylation (STAT3; naïve CD8+ T cells, anti-CD3/CD28 beads, 30 minutes after activation): strong
- CD132 (γ chain) surface expression (CD132 (γC)): upregulate; also recorded: significantly increased
- proliferation in response to IL-2 (expanded CTLs): enhanced
- proliferation in response to IL-15 (expanded CTLs): enhanced
- yield of cell expansion ([5]; mini-REP): dramatically increased
- expansion yield / expansion fold ([5]; regular REP): similar
- CD28 mRNA level (M27-specific CTLs): greatly augmented
- CD28 expression (M27-specific CTLs; compared with cells generated in the absence of IL-21): significantly higher
